These results are taken from patent publication US7205298B2, “Substituted triazine kinase inhibitors” (Janssen Pharmaceutica N.V., priority 2002, dated 2007).

A word on the IC50: it is the midpoint of a concentration-inhibition curve.

This test addresses T1, PKC γ (Homo sapiens, UniProt P05129).
T1 construct: purchased BIOMOL SE-143; host or cells: insect cells
Put plainly: Kinase selectivity assay PKC γ. It is filed as biochemical. Here is the method:
Assays to test compound inhibition of other kinases were preformed using methods that measure the amount of phosphorylation of a biotinylated peptide substrate. Biotinylated peptide substrates were selected from the literature as appropriate for the enzyme being evaluated. The general procedure used to assay for kinase activity is as follows: a kinase reaction mix was prepared in 50 mM Tris-HCl pH=8, 10 mM MgCl2, 0.1 mM Na3VO4, 1 mM DTT, 10 μM ATP, 0.25–1 μM biotinylated peptide substrate, 0.2–0.8 μCuries per well ^33P-γ-ATP (2000–3000 Ci/mmol). Assay conditions vary slightly for each protein kinase, for example, insulin receptor kinase requires 10 mM MnCl2 for activity and Calmodulin-dependent protein kinase requires calmodulin and 2 mM CaCl2. The reaction mixture was dispensed into the wells of a streptavidin coated Flashplate and 1 μL test compound in 100% DMSO was added to a 100 μL reaction volume resulting in a final concentration of 1% DMSO in the reaction. Enzyme was diluted in 50 mM Tris-HCl pH=8.0, 0.1% BSA and added to each well. The reaction was incubated for one hour at 30° C. in the presence of a test compound. […] The plate was read on a scintillation counter to determine ^33P-γ-ATP incorporated into the immobilized peptide substrate. […] A maximum and minimum signal for the assay was determined on each plate. […]

Compound `OCCCNc1cncc(-c2ncnc(Nc3cccc(Cl)c3)n2)c1` [Compound 1, 3-((5-(4-((3-chlorophenyl)amino)-1,3,5-triazin-2-yl)-3-pyridinyl)amino)-1-propanol] returned an IC50 above 100 µM.
